# According to US20260060918A1, “HIGH-PERMEABILITY INCLUSION FOR SOOTHING SKIN REDNESS, HEAT, AND PAIN, AND PREPARATION METHOD AND USE THEREOF” (N.O.D TOPIA (GUANGZHOU) BIOTECHNOLOGY CO.,LTD., priority 2023, published 2026):
# System: LPS-induced HaCaT cells
# Experiment: Anti-inflammatory and soothing experiment: inflammatory factors secreted by LPS-induced HaCaT cells (ELISA)
# Format: cell-based
# Details: inclusion at volume ratio of 0.3% (dexamethasone 50 µg/mL) with 50 µg/ml LPS, 24 h, supernatant, Mean ± SD, n = 3
# Method: In vitro stimuli can activate toll-like receptors (TLR-2 and TLR-4) on keratinocytes, leading to the activation of MAPK and NF-κB pathways. Then, the keratinocytes produce IL-1, IL-6, IL-8, TNF-α, and human HBD-2 (defensins), which induces inflammation and causes skin discomfort. The anti-inflammatory effects of the inclusions in Examples 1 to 9 and Comparative Examples 1 to 9 were evaluated by using LPS-induced HaCaT cells as an inflammatory cell model in vitro and detecting inflammatory factors IL-la, […], and TNF-α secreted in cell supernatant by an ELISA kit.
# The HaCaT cells were inoculated into a 12-well plate with a density of 2.0-3.0×10^5 cells/well, and incubated in an incubator at a temperature of 37±1° C. and a humidity of 90±5%. After the incubation, the culture plate was taken out, and the original culture solution in the well was discarded. In the sample group, 1 mL of test samples with a volume ratio of 0.3% and 50 µg/ml of LPS culture solution were added to each well; in the model group, only 50 µg/mL of LPS culture solution were added; in the positive control group, 1 mL of dexamethasone ([…]) and LPS ([…]) culture solution was added, while in the blank negative control group, 1 mL of culture solution was only added for culturing 24 h. The supernatant was collected by centrifugation and stored at −80° C. Cytokines of IL-la, […], and TNF-α were determined by using the method described in the ELISA kit, and signals were detected at a wavelength of 450 nm. The content of inflammatory factors was shown in Table 6 by the secretion amount (pg) of IL-i1α, IL-1β, and TNF-α contained in each mL of the culture solution, and triplicate wells were set for each test.
smiles,measurement,setting,value
"C[C@@H]1C[C@H]2[C@@H]3CCC4=CC(=O)C=C[C@]4(C)[C@@]3(F)[C@@H](O)C[C@]2(C)[C@@]1(O)C(=O)CO [Dexamethasone, dexamethasone]",IL-1α secretion amount in culture solution,model group 63.29 ± 0.39,36.30 ± 0.21 pg/mL
same,IL-1β secretion amount in culture solution,model group 66.29 ± 0.29,24.67 ± 0.65 pg/mL
same,TNF-α secretion amount in culture solution,model group 92.33 ± 2.25,77.27 ± 2.96 pg/mL
